Laboratory results as given in US9833497B2, “Human originated EGF domain proteins and use of the same” (CHENGDU SOURCEBIO LIMITED-LIABILITY COMPANY, priority 2013, dated 2017).

Tests used:
Type in all cases: cell-based
[1] = system: E. coli DH5α; assay: Antibacterial activity: MIC and growth curve against E. coli DH5α in 96-well plate; conditions: minimal inhibitory concentration against E. coli DH5α; 96-well plate, 5×10^5 CFU/mL, 37° C., judged after 8 h
How it was run: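 Log-phase bacteria (OD600 ~0.5) resuspended in LB at 5×10^5 CFU/mL, exposed to recombinant protein at 50, 25, 12.5 μg/mL final in triplicate, 37 °C shaking at 175 rpm. OD600 read every 30 min; MIC is lowest concentration showing no growth.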

[2] = system: E. coli BL21; assay: MIC against Gram-negative bacteria: E. coli BL21; conditions: for MIC / MIC (μg/mL) E. coli BL21: E. coli BL21
How it was run: (§1)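 Bacteria grown in LB at 37° C with shaking to McFarland 0.5, pelleted and resuspended in fresh LB, then seeded at 5×10^5 CFU/mL per well. Purified recombinant human EGF domain proteins were two-fold serially diluted in triplicate and plates shaken at 37° C, 175 rpm. MIC is the lowest protein concentration with no bacterial growth.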

[3] = system: Pseudomonas aeruginosa; assay: MIC against Gram-negative bacteria: Pseudomonas aeruginosa; conditions: for MIC / MIC (μg/mL) P. aeruginosa: P. aeruginosa
How it was run: as §1

[4] = system: Klebsiella pneumonia; assay: MIC against Gram-negative bacteria: Klebsiella pneumonia; conditions: for MIC / MIC (μg/mL) K. pneumonia: K. pneumonia
How it was run: as §1

[5] = system: Enterobacter cloacae; assay: MIC against Gram-negative bacteria: Enterobacter cloacae; conditions: for MIC / MIC (μg/mL) E. cloacae: E. cloacae
How it was run: as §1

[6] = system: Aeromonas hydrophila; assay: MIC against Gram-negative bacteria: Aeromonas hydrophila; conditions: for MIC / MIC (μg/mL) A. hydrophila: A. hydrophila
How it was run: as §1

[7] = system: Citrobacter diversus; assay: MIC against Gram-negative bacteria: Citrobacter diversus; conditions: for MIC / MIC (μg/mL) C. diversus: C. diversus
How it was run: as §1

[8] = system: Moraxella catarrhalis; assay: MIC against Gram-negative bacteria: Moraxella catarrhalis; conditions: for MIC / MIC (μg/mL) M. catarrhalis: M. catarrhalis
How it was run: as §1

[9] = system: Proteus mirabilis; assay: MIC against Gram-negative bacteria: Proteus mirabilis; conditions: for MIC / MIC (μg/mL) P. mirabilis: P. mirabilis
How it was run: as §1

[10] = system: Proteus vulgaris; assay: MIC against Gram-negative bacteria: Proteus vulgaris; conditions: for MIC / MIC (μg/mL) P. vulgaris: P. vulgaris
How it was run: as §1

[11] = system: Serratia marcescens; assay: MIC against Gram-negative bacteria: Serratia marcescens; conditions: for MIC / MIC (μg/mL) S. marcescens: S. marcescens
How it was run: as §1

[12] = 10 h cultivation at 37° C., 5×10^5 CFU/mL, two-fold serial dilution
[13] = 10 h cultivation at 37° C., 5×10^5 CFU/mL
[14] = 96-well plate, 5×10^5 CFU/mL, 37° C., 10 h

PRT1070 (RPGTCNLQCFNGGSCFLNARRQPKCRCQPRYTGDKCE; listed as Homo sapiens)
12.5 µg/mL: MIC E. coli BL21 [2, 12] | MIC K. pneumonia [4, 12] | MIC A. hydrophila [6, 12] | MIC C. diversus [7, 12] | MIC M. catarrhalis [8, 12] | MIC P. mirabilis [9, 12] | MIC P. vulgaris [10, 12] | MIC S. marcescens [11, 12]
25 µg/mL: MIC [1] | MIC P. aeruginosa [3, 12] | MIC E. cloacae [5, 12]

PRT990 (LDDACVSNPCHEDAICDTNPVNGRAICTCPPGFTGGACD; listed as Homo sapiens)
50 µg/mL: MIC ([5]; 10 h cultivation at 37° C.) | MIC ([8]; 10 h cultivation at 37° C.)
12.5 µg/mL: MIC [1] | MIC ([3]; 10 h cultivation at 37° C.) | MIC ([4]; 10 h cultivation at 37° C.) | MIC ([6]; 10 h cultivation at 37° C.) | MIC ([10]; 10 h cultivation at 37° C.)
25 µg/mL: MIC ([2]; 10 h cultivation at 37° C.) | MIC ([7]; 10 h cultivation at 37° C.) | MIC ([9]; 10 h cultivation at 37° C.) | MIC ([11]; 10 h cultivation at 37° C.)

PRT192 (CPGSGERRICSHHGVCSNEGKCICQPDWTGKDC; listed as Homo sapiens)
50 µg/mL: MIC (μg/mL) E. coli BL21 [2, 13] | MIC (μg/mL) A. hydrophila [6, 13] | MIC (μg/mL) P. vulgaris [10, 13]
25 µg/mL: MIC [1] | MIC (μg/mL) P. aeruginosa [3, 13] | MIC (μg/mL) E. cloacae [5, 13] | MIC (μg/mL) C. diversus [7, 13] | MIC (μg/mL) P. mirabilis [9, 13]
12.5 µg/mL: MIC (μg/mL) K. pneumonia [4, 13] | MIC (μg/mL) M. catarrhalis [8, 13] | MIC (μg/mL) S. marcescens [11, 13]

PRT647 (DVDECLRPDVCGEGHCVNTVGAFRCEYCDSGYRMTQRGRCE; listed as Homo sapiens)
25 µg/mL: MIC [1] | MIC P. aeruginosa [3, 14] | MIC S. marcescens [11, 14]
50 µg/mL: MIC K. pneumonia [4, 14] | MIC A. hydrophila [6, 14] | MIC M. catarrhalis [8, 14] | MIC P. vulgaris [10, 14]
12.5 µg/mL: MIC E. coli BL21 [2, 14] | MIC E. cloacae [5, 14] | MIC C. diversus [7, 14] | MIC P. mirabilis [9, 14]

PRT510 (CDCFLPGTDATTCDSETKKCSCSDQTGQCTCKVNVEGIHCDRCRPGKFGLDAKNPLGCSS; listed as Homo sapiens)
25 µg/mL: MIC against E. coli BL21 [2, 14] | MIC against K. pneumonia [4, 14] | MIC against A. hydrophila [6, 14] | MIC against M. catarrhalis [8, 14] | MIC against P. vulgaris [10, 14]
50 µg/mL: MIC [1] | MIC against E. cloacae [5, 14] | MIC against P. mirabilis [9, 14]
12.5 µg/mL: MIC against P. aeruginosa [3, 14] | MIC against C. diversus [7, 14] | MIC against S. marcescens [11, 14]

PRT988 (DVDECQLQPNACHNGGTCFNTLGGHSCVCVNGWTGESCS; listed as Homo sapiens)
12.5 µg/mL: MIC [1] | MIC ([3]; 10 h cultivation at 37° C.) | MIC ([5]; 10 h cultivation at 37° C.) | MIC ([7]; 10 h cultivation at 37° C.) | MIC ([9]; 10 h cultivation at 37° C.) | MIC ([11]; 10 h cultivation at 37° C.)
50 µg/mL: MIC ([2]; 10 h cultivation at 37° C.) | MIC ([4]; 10 h cultivation at 37° C.) | MIC ([6]; 10 h cultivation at 37° C.) | MIC ([8]; 10 h cultivation at 37° C.) | MIC ([10]; 10 h cultivation at 37° C.)

PRT875 (GGSPCEAGEEGEGGVCLNGGVCSVVDDQAVCDCSRTGFRGKDCS; listed as Homo sapiens)
50 µg/mL: MIC (μg/mL) K. pneumonia [4, 13] | MIC (μg/mL) A. hydrophila [6, 13] | MIC (μg/mL) P. mirabilis [9, 13]
25 µg/mL: MIC [1] | MIC (μg/mL) P. aeruginosa [3, 13] | MIC (μg/mL) M. catarrhalis [8, 13]
12.5 µg/mL: MIC (μg/mL) E. coli BL21 [2, 13] | MIC (μg/mL) E. cloacae [5, 13] | MIC (μg/mL) C. diversus [7, 13] | MIC (μg/mL) P. vulgaris [10, 13] | MIC (μg/mL) S. marcescens [11, 13]

PRT650 (DIDECQQGNLCVNGQCKNTEGSFRCTCGQGYQLSAAKDQCE; listed as Homo sapiens)
25 µg/mL: MIC E. coli BL21 [2, 14] | MIC A. hydrophila [6, 14] | MIC M. catarrhalis [8, 14]
12.5 µg/mL: MIC [1] | MIC K. pneumonia [4, 14] | MIC C. diversus [7, 14] | MIC P. vulgaris [10, 14]
50 µg/mL: MIC P. aeruginosa [3, 14] | MIC E. cloacae [5, 14] | MIC P. mirabilis [9, 14] | MIC S. marcescens [11, 14]

PRT148 (LTDICSVSNGGCHPDASCSSTLGSLPLCTCLPGYTGN; listed as Homo sapiens)
25 µg/mL: MIC [1] | MIC (μg/mL) P. aeruginosa [3, 13]
50 µg/mL: MIC (μg/mL) E. coli BL21 [2, 13] | MIC (μg/mL) E. cloacae [5, 13] | MIC (μg/mL) C. diversus [7, 13] | MIC (μg/mL) P. mirabilis [9, 13] | MIC (μg/mL) S. marcescens [11, 13]
12.5 µg/mL: MIC (μg/mL) K. pneumonia [4, 13] | MIC (μg/mL) A. hydrophila [6, 13] | MIC (μg/mL) M. catarrhalis [8, 13] | MIC (μg/mL) P. vulgaris [10, 13]

PRT418 (DINECSSSPCSQECANVYGSYQCYCRRGYQLSDVDGVTCE; listed as Homo sapiens)
25 µg/mL: MIC [6, 13] | MIC [8, 13] | MIC [10, 13]
50 µg/mL: MIC [4, 13] | MIC [7, 13] | MIC [11, 13]
12.5 µg/mL: MIC [1] | MIC [2, 13] | MIC [3, 13] | MIC [5, 13] | MIC [9, 13]

PRT580 (CDCDPMGSQDGGRCDSHDDPALGLVSGQCRCKEHVVGTRCQQCRDGFFGLSISDRLGCRR; listed as Homo sapiens)
50 µg/mL: MIC against M. catarrhalis [8, 14] | MIC against P. vulgaris [10, 14]
12.5 µg/mL: MIC [1] | MIC against P. aeruginosa [3, 14] | MIC against E. cloacae [5, 14] | MIC against C. diversus [7, 14] | MIC against P. mirabilis [9, 14] | MIC against S. marcescens [11, 14]
25 µg/mL: MIC against E. coli BL21 [2, 14] | MIC against K. pneumonia [4, 14] | MIC against A. hydrophila [6, 14]

PRT421 (DQDECLLLPGELCQHLCINTVGSYHCACFPGFSLQDDGRTCR; listed as Homo sapiens)
50 µg/mL: MIC [2, 13] | MIC [4, 13] | MIC [6, 13] | MIC [8, 13]
12.5 µg/mL: MIC [1] | MIC [3, 13] | MIC [5, 13] | MIC [7, 13] | MIC [10, 13]
25 µg/mL: MIC [9, 13] | MIC [11, 13]

PRT1087 (HEEPCGPSHKSFCLNGGLCYVIPTIPSPFCRCVENYTGARCE; listed as Homo sapiens)
12.5 µg/mL: MIC E. coli BL21 [2, 12] | MIC A. hydrophila [6, 12]
50 µg/mL: MIC [1] | MIC P. aeruginosa [3, 12] | MIC K. pneumonia [4, 12] | MIC E. cloacae [5, 12] | MIC M. catarrhalis [8, 12]
25 µg/mL: MIC C. diversus [7, 12] | MIC P. mirabilis [9, 12] | MIC P. vulgaris [10, 12] | MIC S. marcescens [11, 12]

PRT1109 (EPRGCATQPCHHGALCVPQGPDPTGFRCYCVPGFQGPRCE; listed as Homo sapiens)
50 µg/mL: MIC A. hydrophila [6, 12] | MIC P. mirabilis [9, 12]
12.5 µg/mL: MIC [1] | MIC P. aeruginosa [3, 12] | MIC E. cloacae [5, 12] | MIC C. diversus [7, 12] | MIC S. marcescens [11, 12]
25 µg/mL: MIC E. coli BL21 [2, 12] | MIC K. pneumonia [4, 12] | MIC M. catarrhalis [8, 12] | MIC P. vulgaris [10, 12]

PRT1116 (DIDECASRPCHHGATCRNLADRYECHCPLGYAGVTCE; listed as Homo sapiens)
50 µg/mL: MIC P. mirabilis [9, 12]
12.5 µg/mL: MIC E. coli BL21 [2, 12] | MIC K. pneumonia [4, 12] | MIC C. diversus [7, 12] | MIC S. marcescens [11, 12]
25 µg/mL: MIC [1] | MIC P. aeruginosa [3, 12] | MIC E. cloacae [5, 12] | MIC A. hydrophila [6, 12] | MIC M. catarrhalis [8, 12] | MIC P. vulgaris [10, 12]
